Experimental data: patent US8618153B2, “Hepatitis C virus inhibitors” (Bristol-Myers Squibb Company, priority 2009, dated 2013)

The compounds below were run on HCV 1b genotype (assay: HCV Replicon assay (HCV-neo replicon cells), 1b genotype). Settings: Hepatitis C virus; HCV 1b genotype replicon; numeric value; read-out: 1b EC50 (in μM or range).
Type: cell-based
Method: An HCV Replicon assay was utilized in the present disclosure, and was prepared, conducted and validated as described in commonly owned PCT/US2006/022197 and in O'Boyle et al., Antimicrob. Agents Chemother., 49(4):1346-1353 (April 2005). Assay methods incorporating luciferase reporters have also been used as described (Apath.com).
HCV-neo replicon cells and replicon cells containing mutations in the NS5A region were used to test the currently described family of compounds. The compounds were determined to have more than 10-fold less inhibitory activity on cells containing mutations than wild-type cells. Thus, the compounds of the present disclosure can be effective in inhibiting the function of the HCV NS5A protein and are understood to be as effective in combinations as previously described in application PCT/US2006/022197 and commonly owned WO 04/014852. Further, the compounds of the present disclosure can be effective against the HCV 1b genotype. It should also be understood that the compounds of the present disclosure can inhibit multiple genotypes of HCV. […] In one embodiment compounds of the present disclosure are inhibitory versus 1a, 1b, 2a, 2b, 3a, 4a, and 5a genotypes. […] The compounds of the present disclosure may inhibit HCV by mechanisms in addition to or other than NS5A inhibition. In one embodiment the compounds of the present disclosure inhibit HCV replicon and in another embodiment the compounds of the present disclosure inhibit NS5A.
For COCC[C@H](NC(=O)OC)C(=O)N1CCC[C@H]1c1ncc(-c2cnc(-c3ncc(-c4cnc([C@@H]5CCCN5C(=O)[C@H](CCOC)NC(=O)OC)[nH]4)s3)s2)[nH]1 [Example 15, Methyl ((1S)-3-methoxy-1-(((2S)-2-(4-(5′-(2-((2S)-1-(N-(methoxycarbonyl)-O-methyl-L-homoseryl)-2-pyrrolidinyl)-1H-imidazol-4-yl)-2,2′-bi-1,3-thiazol-5-yl)-1H-imidazol-2-yl)-1-pyrrolidinyl)carbonyl)propyl)carbamate], the EC50 was 0.00238 µM.
In the case of C[C@H](NC(=O)[C@@H](c1ccccc1)N(C)C)c1ncc(-c2cccc(-c3cnc(-c4c[nH]c([C@@H]5CCCN5C(=O)[C@@H](c5ccccc5)N(C)C)n4)o3)c2)[nH]1 [Example 24, (2R)-2-(Dimethylamino)-N-((1S)-1-(4-(3-(2-(2-((2S)-1-((2R)-2-(dimethylamino)-2-phenylacetyl)-2-pyrrolidinyl)-1H-imidazol-4-yl)-1,3-oxazol-5-yl)phenyl)-1H-imidazol-2-yl)ethyl)-2-phenylacetamide], the EC50 is reported as 0.00181 µM.
COC(=O)N[C@@H](C(=O)N1CCC[C@H]1c1ncc(-c2ccc(-c3cnc(-c4c[nH]c([C@@H]5CCCN5C(=O)OCc5ccccc5)n4)o3)cc2)[nH]1)c1ccccc1 [Example 27, Benzyl (2S)-2-(4-(5-(4-(2-((2S)-1-((2R)-2-((methoxycarbonyl)amino)-2-phenylacetyl)-2-pyrrolidinyl)-1H-imidazol-4-yl)phenyl)-1,3-oxazol-2-yl)-1H-imidazol-2-yl)-1-pyrrolidinecarboxylate] showed an EC50 of 0.00671 µM.

Same assay, conditions: Hepatitis C virus; HCV 1b genotype replicon; value given as range class; read-out: 1b EC50 (in μM or range)
With COC(=O)N[C@@H](C(=O)N1CCC[C@H]1c1ncc(-c2cnc(-c3ncc(-c4cnc([C@@H]5CCCN5C(=O)[C@H](NC(=O)OC)c5ccccc5)[nH]4)s3)s2)[nH]1)c1ccccc1 [Example 16, Dimethyl (2,2′-bi-1,3-thiazole-5,5′-diylbis(1H-imidazole-4,2-diyl(2S)-2,1-pyrrolidinediyl((1R)-2-oxo-1-phenyl-2,1-ethanediyl)))biscarbamate] the EC50 was under 0.001 µM.
Compound CN(C)[C@@H](C(=O)N1CCC[C@H]1c1ncc(-c2cnc(-c3ncc(-c4cnc([C@@H]5CCCN5C(=O)[C@@H](c5ccccc5)N(C)C)[nH]4)s3)s2)[nH]1)c1ccccc1 [Example 17, (1R,1′R)-2,2′-(2,2′-Bi-1,3-thiazole-5,5′-diylbis(1H-imidazole-4,2-diyl(2S)-2,1-pyrrolidinediyl))bis(N,N-dimethyl-2-oxo-1-phenylethanamine)] has an EC50 of under 0.001 µM.
In the case of COC(=O)N[C@@H](C(=O)N1CCC[C@H]1c1ncc(-c2cnc(-c3ncc(-c4cnc([C@@H]5CCCN5C(=O)[C@H](NC(=O)OC)C(C)C)[nH]4)s3)s2)[nH]1)C(C)C [Example 18], the EC50 is reported as 0.01 to 10 µM.
COC(=O)N[C@H](C(=O)N1CCC[C@H]1c1ncc(-c2cnc(-c3ncc(-c4cnc([C@@H]5CCCN5C(=O)[C@@H](NC(=O)OC)[C@@H](C)OC)[nH]4)s3)s2)[nH]1)[C@@H](C)OC [Example 19, Methyl ((1S,2R)-2-methoxy-1-(((2S)-2-(4-(5′-(2-((2S)-1-(N-(methoxycarbonyl)-O-methyl-L-threonyl)-2-pyrrolidinyl)-1H-imidazol-4-yl)-2,2′-bi-1,3-thiazol-5-yl)-1H-imidazol-2-yl)-1-pyrrolidinyl)carbonyl)propyl)carbamate] gave an EC50 of 0.001 to 0.01 µM.
For COC(=O)N[C@@H](C)C(=O)N1CCC[C@H]1c1ncc(-c2cnc(-c3ncc(-c4cnc([C@@H]5CCCN5C(=O)[C@H](C)NC(=O)OC)[nH]4)s3)s2)[nH]1 [Example 20, Methyl ((1S)-2-((2S)-2-(4-(5′-(2-((2S)-1-(N-(methoxycarbonyl)-L-alanyl)-2-pyrrolidinyl)-1H-imidazol-4-yl)-2,2′-bi-1,3-thiazol-5-yl)-1H-imidazol-2-yl)-1-pyrrolidinyl)-1-methyl-2-oxoethyl)carbamate], the EC50 was 0.001 to 0.01 µM.
COC(=O)N[C@@H](C(=O)N1CCC[C@H]1c1nc(-c2ncc(-c3cccc(-c4cnc([C@@H]5CCCN5C(=O)[C@H](NC(=O)OC)c5ccccc5)[nH]4)c3)o2)c[nH]1)c1ccccc1 [Example 21, Methyl ((1R)-2-((2S)-2-(4-(3-(2-(2-((2S)-1-((2R)-2-((methoxycarbonyl)amino)-2-phenylacetyl)-2-pyrrolidinyl)-1H-imidazol-4-yl)-1,3-oxazol-5-yl)phenyl)-1H-imidazol-2-yl)-1-pyrrolidinyl)-2-oxo-1-phenylethyl)carbamate] was tested, and the EC50 was under 0.001 µM.
CN(C)[C@@H](C(=O)N1CCC[C@H]1c1nc(-c2ncc(-c3cccc(-c4cnc([C@@H]5CCCN5C(=O)[C@@H](c5ccccc5)N(C)C)[nH]4)c3)o2)c[nH]1)c1ccccc1 [Example 22, (1R)-2-((2S)-2-(4-(3-(2-(2-((2S)-1-((2R)-2-(Dimethylamino)-2-phenylacetyl)-2-pyrrolidinyl)-1H-imidazol-4-yl)-1,3-oxazol-5-yl)phenyl)-1H-imidazol-2-yl)-1-pyrrolidinyl)-N,N-dimethyl-2-oxo-1-phenylethanamine] showed an EC50 of 0.001 to 0.01 µM.
With COC(=O)N[C@@H](C(=O)N[C@@H](C)c1ncc(-c2cccc(-c3cnc(-c4c[nH]c([C@@H]5CCCN5C(=O)[C@H](NC(=O)OC)c5ccccc5)n4)o3)c2)[nH]1)c1ccccc1 [Example 23, Methyl ((1R)-2-((2S)-2-(4-(5-(3-(2-((1S)-1-(((2R)-2-((methoxycarbonyl)amino)-2-phenylacetyl)amino)ethyl)-1H-imidazol-4-yl)phenyl)-1,3-oxazol-2-yl)-1H-imidazol-2-yl)-1-pyrrolidinyl)-2-oxo-1-phenylethyl) carbamate] the EC50 was 0.001 to 0.01 µM.
COC(=O)N[C@@H](C(=O)N1CCC[C@H]1c1nc(-c2ncc(-c3ccc(-c4cnc([C@@H]5CCCN5C(=O)[C@H](NC(=O)OC)c5ccccc5)[nH]4)cc3)o2)c[nH]1)c1ccccc1 [Example 25, Methyl ((1R)-2-((2S)-2-(4-(4-(2-(2-((2S)-1-((2R)-2-((methoxycarbonyl)amino)-2-phenylacetyl)-2-pyrrolidinyl)-1H-imidazol-4-yl)-1,3-oxazol-5-yl)phenyl)-1H-imidazol-2-yl)-1-pyrrolidinyl)-2-oxo-1-phenylethyl)carbamate] was tested, and the EC50 was 0.001 to 0.01 µM.
CN(C)[C@@H](C(=O)N1CCC[C@H]1c1nc(-c2ncc(-c3ccc(-c4cnc([C@@H]5CCCN5C(=O)[C@@H](c5ccccc5)N(C)C)[nH]4)cc3)o2)c[nH]1)c1ccccc1 [Example 26, (1R)-2-((2S)-2-(4-(4-(2-(2-((2S)-1-((2R)-2-(Dimethylamino)-2-phenylacetyl)-2-pyrrolidinyl)-1H-imidazol-4-yl)-1,3-oxazol-5-yl)phenyl)-1H-imidazol-2-yl)-1-pyrrolidinyl)-N,N-dimethyl-2-oxo-1-phenylethanamine] was tested, and the EC50 was 0.001 to 0.01 µM.
With CN(C)[C@@H](C(=O)N1CCC[C@H]1c1ncc(-c2ccc(-c3cnc(-c4c[nH]c([C@@H]5CCCN5C(=O)OCc5ccccc5)n4)o3)cc2)[nH]1)c1ccccc1 [Example 28, Benzyl (2S)-2-(4-(5-(4-(2-((2S)-1-((2R)-2-((N,N-dimethyl)amino)-2-phenylacetyl)-2-pyrrolidinyl)-1H-imidazol-4-yl)phenyl)-1,3-oxazol-2-yl)-1H-imidazol-2-yl)-1-pyrrolidinecarboxylate] the EC50 was 0.001 to 0.01 µM.
COC(=O)N[C@@H](C(=O)N1CCC[C@H]1c1ncc(C#CC#Cc2cnc([C@@H]3CCCN3C(=O)[C@H](NC(=O)OC)c3ccccc3)[nH]2)[nH]1)c1ccccc1 [Example 29, Dimethyl (1R,1′R)-2,2′-((2S,2′S)-2,2′-(5,5′-(buta-1,3-diyne-1,4-diyl)bis(1H-imidazole-5,2-diyl))bis(pyrrolidine-2,1-diyl))bis(2-oxo-1-phenylethane-2,1-diyl)dicarbamate] showed an EC50 of under 0.001 µM.
